Results from patent publication US20060106099A1, “Novel inhibitors of ubiquitin isopeptidases” (priority 2002, published 2006).
Where two headings read alike, the source gives them in different places.

Columns and labels:
ubiquitin isopeptidases = assay: In vivo isopeptidase activity after treatment of RKO cells, Ub-PEST; assay type: cell-based, human
Method: Isopeptidase Assay. It was hypothesized that the punaglandins would inhibit ubiquitin-isopeptidase activity of the proteasome pathway as does the prostaglandin, Δ^12-PGJ2 (1), but with greater potency because of the chlorinated C-10. To validate this theory, cellular isopeptidase enzymatic activity was measured in vitro after treatment with individual punaglandins, PNG 2 (6), PNG 3 (7), and Z-PNG 4 (9) and in vivo after individual treatment with PNG 4 (8) and PNG 6 (10). This activity was determined utilizing the simple isopeptidase substrate, ubiquitin-PEST (Ub-PEST), a full/length ubiquitin (Ub) molecule fused with an 18-amino acid C-terminal peptide extension that most isopeptidases use as a substrate. The polypeptide extension contains regions rich in Pro (P), Glu (E), Ser (S), and Thr (T) residues called PEST motifs that are responsible for rapid degradation of these and other unstable proteins. Ub isopeptidases specifically cleave this peptide extension, yielding free, full-length Ub. Both the fused Ub-PEST (10.5 kDa) and the cleaved, free Ub (8.5 kDa) can be observed via immunochemical detection.
In vivo Isopeptidase Activity. To investigate whether punaglandins can inhibit isopeptidase activity in vivo, isopeptidase activity was analyzed after punaglandin treatment of RKO cells. PNG 4 (8) and PNG 6 (10) were selected for in vivo investigation because they differ only in enone functionality, where (8) is a dienone and (10) an enone. RKO cells were incubated with 1 μM, 4 μM, or 7 μM of PNG 4 (8) and PNG 6 (10). […] As a positive control, cells were treated with a known isopeptidase inhibitor, shikoccin (SK). After 6 h drug treatment, cells were lysed and protein concentration adjusted to 0.3 mg/mL per sample. Each sample was subsequently incubated with 50 μg/mL of Ub-PEST. The reaction was terminated after 20 min and the respective amounts of Ub-PEST (10 kDa) and free Ub product (8.5 kDa) were determined by SDS-PAGE fractionation.

p53 = p53 accumulation ratio in RKO-E6 and RKO cells, punaglandin study; assay type: cell-based, human; conditions: 7 μM, 6 h
Method: To determine if punaglandins inhibit p53 degradation by disrupting the proteasome pathway, the accumulation ratio of p53 was determined in RKO and RKO-E6 cells treated with selected punaglandins, PNG 4 (8) and PNG 6 (10). Equally seeded RKO and RKO-E6 cells were treated with vehicle (0.5% DMSO), 50 μM Etoposide, 60 μM PGA2 (3), 7 μM PNG 6 (10), and 7 μM PNG 4 (8). After 6 h incubation with vehicle or drug, cells were lysed and harvester. […] of protein from each lysate was fractionated by SDS-PAGE and probed for p53 protein. The p53 band intensities were then analyzed and quantitated using densitometry. The ratio of p53 in RKO-E6 to RKO cells was calculated by dividing the amount of p53 in RKO-E6 cells by the amount in RKO cells and multiplying by 100 to give percent

caspase-3 = assay: Caspase-3 activity in RKO cells (DEVD-AMC); assay type: cell-based, human; conditions: PNG 4 0.5 μM, PNG 6 1 μM, Taxol 1 μM
Method: To determine if selected punaglandins, PNG 4 (8) and PNG 6 (10) also induce apoptosis in RKO cells in a time dependent manner, caspase-3 activity was determined. During apoptosis the caspases, a family of cysteinyl aspartate-specific proteases, are activated. These enzymes cleave specific substrates resulting in biochemical and morphological changes associated with apoptosis. Therefore, detection of activated caspases can be used as a biochemical marker for apoptosis. Caspase-3 has substrate specificity for the amino acid sequence Asp-Glu-Val-Asp (DEVD), cleaving after Asp, and therefore caspase activity can be measured by monitoring cleavage of the substrate DEVD-AMC (Asp-Glu-Val-Asp-7-amino-4-[…]).
RKO cells were treated for 4, 8, and 12 h with PNG 4 (8) at 0.5 μM and PNG 6 (10) at 1 μM. Taxol, a known apoptotic inducer at 1 μM, was used as a positive control, and negative control cells were treated with vehicle (0.5% DMSO). Caspase-3 activity rose steadily as expected from 4-12 h in cells treated with PNG 4 (8), PNG 6 (10), and Taxol but remained constant in the untreated control cells.

HCT 116 (p53 wt) = assay: MTS cytotoxicity, HCT 116 (p53 wt); assay type: cell-based; conditions: Homo sapiens, 48 h
Excerpt: (§1) Cytotoxicity in Human Colon Tumor (HCT) Cell Lines. To determine if punaglandins elicit cytotoxicity independently of the tumor-suppressor p53, as do other dienone prostaglandins, several cytotoxicity assays were employed. First, cell death effects of all isolated punaglandins were investigated in pairs of isogenic colon cancer cell lines, the HCT 116^+/+ competent cell line and HCT 116^−/− null cell lines. HCT 116^+/+ cells are homozygous for p53^+/+ and p21^+/+; where as, HCT 116^−/− cells lack both alleles for p53 (p53^−/−) or p21 (p21^−/−).
(§2) Each cell line was seeded simultaneously in 96-well plates and incubated for 24 h before treatment with individual punaglandins at various concentrations for 48 additional h. Cytotoxicity was determined using MTS and absorbances were recorded at 490 nm. Half maximal effective concentrations (EC50) and Log EC50s were calculated from a concentration-response curve generated using GraphPad Prism (Table 1).

HCT 116 (p53^−/−) = assay: MTS cytotoxicity, HCT 116 (p53−/−); assay type: cell-based; conditions: Homo sapiens, log of EC50 in μM, 48 h, read-out: Log EC50 +/− Standard Error of Log EC50, HCT 116 (p53−/−) (converted)
Excerpt: as §1, §2

HCT 116 (p21 wt) = assay: MTS cytotoxicity, HCT 116 (p21 wt); assay type: cell-based; conditions: Homo sapiens, log of EC50 in μM, 48 h, read-out: Log EC50 +/− Standard Error of Log EC50, HCT 116 (p21 wt) (converted)
Excerpt: as §1, §2

HCT 116 (p21^−/−) = assay: MTS cytotoxicity, HCT 116 (p21−/−); assay type: cell-based; conditions: Homo sapiens, log of EC50 in μM, 48 h, read-out: Log EC50 +/− Standard Error of Log EC50, HCT 116 (p21−/−) (converted)
Excerpt: as §1, §2

RKO = assay: MTS cytotoxicity, RKO cells; assay type: cell-based; conditions: Homo sapiens, 48 h
Method: (§3) Cytotoxicity in Human Colon Tumor (RKO) Cell Lines. Punaglandins (8) and (10) were also assayed for p53-independent cytotoxicity in RKO and RKO-E6 cells. Each cell line was seeded simultaneously in 96-well plates and incubated for 24 h before treatment with PNG 4 (8) and PNG 6 (10) at various concentrations for 48 h. Cytotoxicity was determined using MTS and absorbances were recorded at 490 nm. Log EC50s and EC50s were calculated from a concentration-response curve generated using GraphPad Prism (Table 2).

RKO-E6 = assay: MTS cytotoxicity, RKO-E6 cells; assay type: cell-based; conditions: Homo sapiens, RKOE6, log of EC50 in μM, 48 h, read-out: Log EC50 +/− Standard Error of Log EC50, RKO-E6 (converted)
Method: as §3

CCCCC/C=C\C[C@@]1(O)C=C(Cl)C(=O)/C1=C/[C@H](OC(C)=O)[C@H](CCCC(=O)OC)OC(C)=O [PNG 4]
Ub-Pest degradation, % of the control (densitometry) (ubiquitin isopeptidases; 7 μM, 6 h): 67%
concentration of noticeable inhibition of Ub-PEST degradation (ubiquitin isopeptidases; 6 h treatment): 7 µM
accumulation of p53 in RKO and RKO-E6 cells (p53): showed enhanced accumulation of p53
Caspase-3 activity from 4-12 h (caspase-3): rose steadily
EC50 (HCT 116 (p53 wt); average over the three compounds, read-out: average EC50 of PNG 3, PNG 4 and PNG 6, cytotoxicity in HCT 116 cell lines): ~0.35 µM
EC50 (HCT 116 (p53 wt); log of EC50 in μM, read-out: Log EC50 +/− Standard Error of Log EC50, HCT 116 (p53 wt) (converted)): 0.331 µM
EC50 (HCT 116 (p53^−/−)): 0.355 µM
EC50 (HCT 116 (p21 wt)): 0.339 µM
EC50 (HCT 116 (p21^−/−)): 0.282 µM
EC50 (RKO; read-out: EC50 in RKO cell lines, punaglandins): 0.31 µM
EC50 (RKO; log of EC50 in μM, read-out: Log EC50 +/− Standard Error of Log EC50, RKO (converted)): 0.309 µM
EC50 (RKO-E6): 0.372 µM
